Here are results for seven molecules from ChEMBL document CHEMBL1201862, “PubChem BioAssay data set” (2004).

Activity calls are given as the source filed them.

One experiment concerns the target Cytochrome P450 2C19 (Homo sapiens, UniProt P33261). In words: qHTS Assay for Inhibitors and Substrates of Cytochrome P450 2C19. [Related pubchem assays: 410 ]. Format: ADME. The settings on record: read-out: Potency. (In general: Quantitative high-throughput screening tests each substance at several concentrations.)
Experiment [1] can be described thus: Late stage counterscreen results from the probe development effort to identify activators of signal transducer and activator of transcription 1 (STAT1): luminescence-based cell-based dose response assay to identify cytotoxic compounds. In kind it is functional. Background: The purpose of a counterscreen is to sort out artefacts and off-target activity.
The target of another experiment is Paired box protein Pax-8 (Homo sapiens, UniProt Q06710). In words: PAX8 transcriptional activity inhibition in RMG-I – RMG-I cells, luciferase, cherry-pick, dose response (AID 687027).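 Also: luciferase reporter driven by Pax8 target thyroperoxidase promoter measured by SteadyGlo luminescence.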 Format: functional, cell-based.
A further experiment concerns the target Ephrin type-A receptor 4 (Mus musculus, UniProt Q03137). In words: EphA4 ligand-binding antagonists – biochemical, colorimetric, mouse EphA4, primary screen (AID 689). Format: functional.
The nature of experiment [2]: general cell-killing toxicity readout – plate reader, dry powder samples, cytotoxicity control for PAX8 inhibitor project, dose response (AID 743021). In kind it is functional, cell-based.
Experiment [3] has as its target G-protein coupled receptor 35 (Homo sapiens, UniProt Q9HC97). In words: inhibition of zaprinast-stimulated GPR35 beta-arrestin translocation – imaging, U2OS, beta-arrestin-GFP, zaprinast agonist, primary screen (AID 2058).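 Also: antagonist potency meaning inhibition of agonist-induced arrestin redistribution.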 Format: functional.
The target in experiment [4] is T1, Bcl-2-related protein A1 (Mus musculus, UniProt Q07440).
T1 sequence (Q07440 whole entry): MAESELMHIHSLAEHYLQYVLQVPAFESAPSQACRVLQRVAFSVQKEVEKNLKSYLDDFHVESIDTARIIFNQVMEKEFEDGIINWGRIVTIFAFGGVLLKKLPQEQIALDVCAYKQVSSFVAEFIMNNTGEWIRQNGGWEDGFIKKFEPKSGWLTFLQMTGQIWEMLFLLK
In words: displacement of Bid BH3 peptide from Bfl-1 – biochemical, fluorescence polarization, FITC-Bid, mouse, primary screen (AID 432). A general note: Fluorescence polarisation rises when a labelled molecule tumbles more slowly, as on binding a larger partner.

In experiment [5] the target is T2, Zinc finger protein mex-5 (Caenorhabditis elegans, UniProt Q9XUB2).
T2 sequence (Q9XUB2 whole entry): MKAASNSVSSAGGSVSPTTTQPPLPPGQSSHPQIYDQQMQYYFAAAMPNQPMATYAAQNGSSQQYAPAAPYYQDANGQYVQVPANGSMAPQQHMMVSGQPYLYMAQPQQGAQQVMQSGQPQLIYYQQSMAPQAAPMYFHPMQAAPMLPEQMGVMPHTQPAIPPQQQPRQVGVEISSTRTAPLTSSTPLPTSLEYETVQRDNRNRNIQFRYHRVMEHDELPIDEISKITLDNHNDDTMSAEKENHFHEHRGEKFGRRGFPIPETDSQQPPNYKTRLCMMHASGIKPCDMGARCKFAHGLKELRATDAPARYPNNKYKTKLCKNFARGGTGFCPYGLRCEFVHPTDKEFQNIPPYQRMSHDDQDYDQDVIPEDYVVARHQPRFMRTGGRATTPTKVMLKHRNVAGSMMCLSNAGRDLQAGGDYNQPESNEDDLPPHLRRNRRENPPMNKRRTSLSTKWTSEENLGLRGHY
In words: potency of MEX-5 RNA-binding blockers – biochemical, C. elegans, fluorescence polarization, dose response (AID 1960).

The target of experiment [6] is T1, Bcl-2-related protein A1. In words: small-molecule antagonists of Bfl-1/BH3 interaction – biochemical, TR-FRET, mouse Bfl-1, confirmation (AID 621).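 Also: TR-FRET binding of GST-Bfl-1 to FITC-labelled Bid peptide via terbium antibody.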
Experiment [7] has as its target T3, Heat shock factor protein 1 (Mus musculus, UniProt P38532).
T3 sequence (P38532 whole entry): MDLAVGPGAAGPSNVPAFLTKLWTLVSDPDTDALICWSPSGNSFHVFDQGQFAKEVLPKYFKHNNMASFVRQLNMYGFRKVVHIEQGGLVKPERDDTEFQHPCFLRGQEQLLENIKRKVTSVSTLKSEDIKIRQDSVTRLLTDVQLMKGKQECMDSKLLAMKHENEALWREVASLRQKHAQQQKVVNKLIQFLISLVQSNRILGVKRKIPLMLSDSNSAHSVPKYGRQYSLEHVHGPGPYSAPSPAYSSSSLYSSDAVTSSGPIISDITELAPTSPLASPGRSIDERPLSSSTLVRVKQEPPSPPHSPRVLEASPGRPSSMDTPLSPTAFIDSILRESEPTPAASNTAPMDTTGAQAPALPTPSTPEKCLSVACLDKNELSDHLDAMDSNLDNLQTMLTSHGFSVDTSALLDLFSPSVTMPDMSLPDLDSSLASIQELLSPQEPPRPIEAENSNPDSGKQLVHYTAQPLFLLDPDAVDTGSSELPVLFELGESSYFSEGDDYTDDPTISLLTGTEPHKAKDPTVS
In words: enhancement of HSF1-driven luciferase signal – cell-based, NIH3T3, luminescence, dose retest, confirmation (AID 435004).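 Also: stress induced by proteasome inhibitor MG132 added 30 min after compound; luciferase reporter driven by HSF1 response element in NIH3T3 cells; actives raise luminescence as potentiators of the MG132 stress response.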 In kind it is functional.

Experiment [8] addresses T4, RNA-binding protein pos-1 (Caenorhabditis elegans, UniProt G5EF15).
T4 sequence (G5EF15 whole entry): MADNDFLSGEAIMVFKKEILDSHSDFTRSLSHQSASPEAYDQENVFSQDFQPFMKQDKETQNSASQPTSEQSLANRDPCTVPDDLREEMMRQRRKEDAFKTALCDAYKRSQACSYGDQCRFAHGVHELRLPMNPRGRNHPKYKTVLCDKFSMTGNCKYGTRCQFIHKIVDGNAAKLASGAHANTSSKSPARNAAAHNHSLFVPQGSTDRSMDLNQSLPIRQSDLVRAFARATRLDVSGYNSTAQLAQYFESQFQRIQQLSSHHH
In words: disruptors of C. elegans POS-1 RNA interaction – biochemical, fluorescence polarization, dose response (AID 1964).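 Also: purified POS-1 fused to maltose binding protein made in E. coli; potency of compounds blocking POS-1 binding to fluorescent RNA.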

The target of experiment [9] is Peroxisome proliferator-activated receptor gamma/Nuclear receptor corepressor 2 (Homo sapiens, UniProt P37231+Q9Y618). In words: Counterscreen for NR2E3 inverse agonists: TR-FRET-based biochemical high throughput dose response assay to identify inverse agonists of the interaction between peroxisome proliferator-activated receptor gamma (PPARg) and nuclear receptor co-repressor 2 (NCOR2). In kind it is functional.

Experiment [10] has as its target Peroxisome proliferator-activated receptor gamma/Nuclear receptor coactivator 1 (Homo sapiens, UniProt P37231). In words: TR-FRET dose response biochemical High Throughput Screening assay for agonists of the steroid receptor coactivator 1 (SRC-1) recruitment by the peroxisome proliferator-activated receptor gamma (PPAR gamma): non-selective agonists. [Related pubchem assays (depositor defined):AID1300, AID1808, AID504735, AID631]. Format: protein assay.

Experiment [11] concerns the target Photoreceptor-specific nuclear receptor (Homo sapiens, UniProt Q9Y5X4). In words: ligands suppressing NR2E3 nuclear receptor activity – biochemical, TR-FRET, dose response (AID 463256). Format: functional.
In experiment [12] the target is Peroxisome proliferator-activated receptor gamma/Nuclear receptor coactivator 3 (Homo sapiens, UniProt P37231). In words: TR-FRET dose response biochemical High Throughput Screening assay for agonists of the steroid receptor coactivator 3 (SRC-3) recruitment by the peroxisome proliferator-activated receptor gamma (PPAR gamma): non-selective agonists. [Related pubchem assays: 1301 (Confirmation screen.), 1048 (Primary screen.)]. In kind it is functional.

For experiment [13], the target named is Peroxisome proliferator-activated receptor gamma/Nuclear receptor coactivator 2 (Homo sapiens, UniProt P37231). In words: TR-FRET dose response biochemical High Throughput Screening assay for agonists of the steroid receptor coactivator 2 (SRC-2) recruitment by the peroxisome proliferator-activated receptor gamma (PPAR gamma): non-selective agonists. [Related pubchem assays: 1297, 1032 ]. In kind it is functional.

Experiment [14] concerns the target FAD-linked sulfhydryl oxidase ALR (Homo sapiens, UniProt P55789). In words: ALR-catalysed DTT oxidation blockers – biochemical, H2O2 detection, luminescence, cherry-pick, dose response (AID 493248).
A further experiment has as its target Large T antigen (Simian virus 40, UniProt P03070). Format: functional, Betapolyomavirus macacae.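 Also: Confirmatory-stage PubChem screen for compounds that inhibit SV40 T antigen.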
Experiment [15] in a line: Luminescent dose response cell-based high throughput screening assay for inhibitors of the Janus kinase 2 mutant JAK2V617F. [Related pubchem assays: 1446 (Primary screen.), 1521 (Confirmation assay.), 1486 (Counter screen.)]. In kind it is functional.
Experiment [16] has as its target T5, Rac GTPase-activating protein 1 (Homo sapiens, UniProt Q9H0H5).
T5 sequence (Q9H0H5 whole entry): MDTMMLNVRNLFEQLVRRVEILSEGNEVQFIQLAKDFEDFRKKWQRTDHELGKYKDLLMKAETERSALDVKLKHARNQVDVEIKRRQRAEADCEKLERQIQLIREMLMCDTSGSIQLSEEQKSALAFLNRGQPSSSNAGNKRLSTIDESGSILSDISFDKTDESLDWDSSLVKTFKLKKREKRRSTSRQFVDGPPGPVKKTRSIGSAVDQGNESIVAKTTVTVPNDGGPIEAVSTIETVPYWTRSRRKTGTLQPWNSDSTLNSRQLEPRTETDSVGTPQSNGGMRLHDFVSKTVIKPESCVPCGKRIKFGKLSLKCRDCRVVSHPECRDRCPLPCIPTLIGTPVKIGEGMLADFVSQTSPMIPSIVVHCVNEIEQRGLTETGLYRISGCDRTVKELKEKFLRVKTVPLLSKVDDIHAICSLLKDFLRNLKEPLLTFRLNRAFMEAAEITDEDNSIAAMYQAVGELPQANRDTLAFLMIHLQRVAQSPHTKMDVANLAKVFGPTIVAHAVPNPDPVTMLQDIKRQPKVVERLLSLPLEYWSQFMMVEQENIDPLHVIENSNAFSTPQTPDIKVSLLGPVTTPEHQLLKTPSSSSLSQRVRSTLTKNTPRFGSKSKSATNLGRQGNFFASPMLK
In words: blockers of MgcRacGAP-driven Rac1 GTP hydrolysis – biochemical, ADP Hunter fluorescence, primary and confirmatory, confirmation (AID 624330). In kind it is functional.

Another experiment concerns the target T6, Leucine aminopeptidase (Plasmodium falciparum 3D7, UniProt Q8IL11).
T6 sequence (Q8IL11 whole entry): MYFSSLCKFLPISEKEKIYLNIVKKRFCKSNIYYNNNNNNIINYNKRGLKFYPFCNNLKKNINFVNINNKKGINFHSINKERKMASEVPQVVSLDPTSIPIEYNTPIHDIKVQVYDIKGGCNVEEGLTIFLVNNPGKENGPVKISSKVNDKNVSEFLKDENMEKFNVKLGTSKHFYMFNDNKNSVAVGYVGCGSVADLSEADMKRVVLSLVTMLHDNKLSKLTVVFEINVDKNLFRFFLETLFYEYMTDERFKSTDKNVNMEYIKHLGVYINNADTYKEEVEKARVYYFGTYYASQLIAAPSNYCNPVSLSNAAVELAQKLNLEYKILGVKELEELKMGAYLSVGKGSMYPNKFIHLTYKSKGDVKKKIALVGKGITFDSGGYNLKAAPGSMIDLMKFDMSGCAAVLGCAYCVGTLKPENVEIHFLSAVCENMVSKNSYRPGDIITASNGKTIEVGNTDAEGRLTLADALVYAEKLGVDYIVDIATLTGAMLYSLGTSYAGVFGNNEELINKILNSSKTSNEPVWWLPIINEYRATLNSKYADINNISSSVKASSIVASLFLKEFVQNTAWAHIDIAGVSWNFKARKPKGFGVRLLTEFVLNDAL
In words: P. falciparum M17LAP inhibitors, primary screen, biochemical, fluorogenic H-Leu-NHMec substrate, 1536-well (AID 1619). Format: functional.

Another experiment deals with Heat shock protein HSP90 (Homo sapiens, UniProt P07900+P08238). In words: Hsp90 blockade concentration-response – dose response (AID 712). Format: functional.
In the next experiment the target is Cytochrome P450 3A4 (Homo sapiens, UniProt P08684).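 Also: CYP3A4 tested as one member of a cytochrome P450 panel screen.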
The next experiment deals with Danio rerio. In words: In Vivo Angiogenesis Dose-Response Confirmation. [Related pubchem assays: 732 (Assay preceding this confirmatory assay.)]. In kind it is functional, organism-based.
A short description of experiment [17]: luciferase reporter signal suppression in cells – H4 neuroglioma cells, luminescence, dose response (AID 1990). In kind it is functional, cell-based.
The nature of experiment [18]: Luminescence Cell-Based Dose Response HTS to Identify Inhibitors of 5'UTR Stem-Loop Driven Prion Protein mRNA Translation in H4 Neuroglioblastoma Cells. [Related pubchem assays: 1827 (Project Summary), 1813 (Primary HTS)]. Format: functional.

Sequence of Cytochrome P450 3A4 (P08684 whole entry): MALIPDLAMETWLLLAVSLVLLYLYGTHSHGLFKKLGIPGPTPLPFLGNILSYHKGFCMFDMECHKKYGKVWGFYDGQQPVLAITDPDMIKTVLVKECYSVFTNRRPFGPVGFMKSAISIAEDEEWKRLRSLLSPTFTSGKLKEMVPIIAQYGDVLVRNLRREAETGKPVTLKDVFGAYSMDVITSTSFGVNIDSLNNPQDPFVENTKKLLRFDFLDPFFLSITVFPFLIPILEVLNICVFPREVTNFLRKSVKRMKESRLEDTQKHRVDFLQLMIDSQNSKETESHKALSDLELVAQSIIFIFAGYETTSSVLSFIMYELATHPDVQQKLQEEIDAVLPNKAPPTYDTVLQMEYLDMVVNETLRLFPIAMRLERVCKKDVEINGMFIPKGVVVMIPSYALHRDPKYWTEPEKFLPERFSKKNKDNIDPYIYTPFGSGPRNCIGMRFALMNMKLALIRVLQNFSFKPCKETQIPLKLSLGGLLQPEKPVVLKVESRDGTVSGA
Sequence of G-protein coupled receptor 35 (Q9HC97 whole entry): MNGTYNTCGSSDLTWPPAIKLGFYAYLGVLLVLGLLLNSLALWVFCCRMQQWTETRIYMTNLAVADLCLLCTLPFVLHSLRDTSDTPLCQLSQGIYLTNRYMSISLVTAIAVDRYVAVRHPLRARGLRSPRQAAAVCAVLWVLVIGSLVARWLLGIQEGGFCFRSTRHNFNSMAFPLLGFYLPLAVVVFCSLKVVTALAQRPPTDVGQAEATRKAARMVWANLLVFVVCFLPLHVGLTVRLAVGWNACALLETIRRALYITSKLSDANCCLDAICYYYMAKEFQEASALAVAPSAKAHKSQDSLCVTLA
Sequence of Large T antigen (P03070 whole entry): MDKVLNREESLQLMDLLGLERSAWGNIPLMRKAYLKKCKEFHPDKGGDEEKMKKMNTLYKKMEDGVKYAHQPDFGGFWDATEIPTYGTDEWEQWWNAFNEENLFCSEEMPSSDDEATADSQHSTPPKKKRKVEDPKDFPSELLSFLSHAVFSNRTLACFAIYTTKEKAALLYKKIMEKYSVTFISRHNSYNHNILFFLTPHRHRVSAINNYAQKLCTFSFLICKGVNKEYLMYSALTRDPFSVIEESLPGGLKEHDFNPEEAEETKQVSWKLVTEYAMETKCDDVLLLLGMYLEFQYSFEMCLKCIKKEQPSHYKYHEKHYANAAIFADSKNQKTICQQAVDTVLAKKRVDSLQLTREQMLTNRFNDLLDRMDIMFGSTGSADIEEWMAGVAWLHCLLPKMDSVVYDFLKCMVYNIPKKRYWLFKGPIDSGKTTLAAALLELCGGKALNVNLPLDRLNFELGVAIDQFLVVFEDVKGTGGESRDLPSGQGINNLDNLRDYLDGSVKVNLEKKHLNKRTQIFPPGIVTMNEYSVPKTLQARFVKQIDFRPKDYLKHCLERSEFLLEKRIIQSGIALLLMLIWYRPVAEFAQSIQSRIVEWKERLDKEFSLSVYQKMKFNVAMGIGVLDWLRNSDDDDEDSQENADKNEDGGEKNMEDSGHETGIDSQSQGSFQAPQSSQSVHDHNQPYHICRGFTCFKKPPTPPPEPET
Sequence of Photoreceptor-specific nuclear receptor (Q9Y5X4 whole entry): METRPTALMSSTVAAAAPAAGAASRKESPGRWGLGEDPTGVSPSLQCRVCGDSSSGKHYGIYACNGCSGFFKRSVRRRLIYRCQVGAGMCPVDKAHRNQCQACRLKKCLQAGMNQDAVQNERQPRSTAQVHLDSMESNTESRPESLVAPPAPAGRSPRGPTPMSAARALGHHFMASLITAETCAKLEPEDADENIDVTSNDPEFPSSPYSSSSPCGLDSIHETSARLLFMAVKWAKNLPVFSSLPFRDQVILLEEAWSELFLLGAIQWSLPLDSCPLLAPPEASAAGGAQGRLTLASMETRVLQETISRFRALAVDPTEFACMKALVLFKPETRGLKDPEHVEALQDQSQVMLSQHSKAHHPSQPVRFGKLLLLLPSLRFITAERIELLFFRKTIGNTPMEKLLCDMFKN
Sequence of Cytochrome P450 2C19 (P33261 whole entry): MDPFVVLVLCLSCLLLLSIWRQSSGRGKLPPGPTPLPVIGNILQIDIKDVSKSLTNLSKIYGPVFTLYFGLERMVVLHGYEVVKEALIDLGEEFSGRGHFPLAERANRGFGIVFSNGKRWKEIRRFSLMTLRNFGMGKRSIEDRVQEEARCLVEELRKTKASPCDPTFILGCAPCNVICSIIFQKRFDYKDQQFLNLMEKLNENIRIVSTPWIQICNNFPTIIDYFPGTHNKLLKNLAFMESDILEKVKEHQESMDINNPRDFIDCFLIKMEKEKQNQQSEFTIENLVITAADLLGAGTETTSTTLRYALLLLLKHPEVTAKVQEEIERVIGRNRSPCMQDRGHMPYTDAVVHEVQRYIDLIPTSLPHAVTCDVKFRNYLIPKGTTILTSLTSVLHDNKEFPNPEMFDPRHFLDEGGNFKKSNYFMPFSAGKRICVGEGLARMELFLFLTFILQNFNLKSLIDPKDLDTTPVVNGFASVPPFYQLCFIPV
Sequence of Paired box protein Pax-8 (Q06710 whole entry): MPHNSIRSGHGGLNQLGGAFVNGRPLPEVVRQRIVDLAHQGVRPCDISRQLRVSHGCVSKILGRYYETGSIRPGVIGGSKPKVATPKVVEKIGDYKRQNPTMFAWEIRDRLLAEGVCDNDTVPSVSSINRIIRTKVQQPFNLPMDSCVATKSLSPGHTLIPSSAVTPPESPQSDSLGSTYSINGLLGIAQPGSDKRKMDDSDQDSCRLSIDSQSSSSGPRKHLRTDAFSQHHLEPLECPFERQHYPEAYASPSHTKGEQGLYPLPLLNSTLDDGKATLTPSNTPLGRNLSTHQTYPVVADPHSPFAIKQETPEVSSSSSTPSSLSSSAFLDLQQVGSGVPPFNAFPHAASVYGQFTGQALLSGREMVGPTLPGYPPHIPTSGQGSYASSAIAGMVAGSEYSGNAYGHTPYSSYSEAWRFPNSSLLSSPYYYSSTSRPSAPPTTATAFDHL
Sequence of Ephrin type-A receptor 4 (Q03137 whole entry): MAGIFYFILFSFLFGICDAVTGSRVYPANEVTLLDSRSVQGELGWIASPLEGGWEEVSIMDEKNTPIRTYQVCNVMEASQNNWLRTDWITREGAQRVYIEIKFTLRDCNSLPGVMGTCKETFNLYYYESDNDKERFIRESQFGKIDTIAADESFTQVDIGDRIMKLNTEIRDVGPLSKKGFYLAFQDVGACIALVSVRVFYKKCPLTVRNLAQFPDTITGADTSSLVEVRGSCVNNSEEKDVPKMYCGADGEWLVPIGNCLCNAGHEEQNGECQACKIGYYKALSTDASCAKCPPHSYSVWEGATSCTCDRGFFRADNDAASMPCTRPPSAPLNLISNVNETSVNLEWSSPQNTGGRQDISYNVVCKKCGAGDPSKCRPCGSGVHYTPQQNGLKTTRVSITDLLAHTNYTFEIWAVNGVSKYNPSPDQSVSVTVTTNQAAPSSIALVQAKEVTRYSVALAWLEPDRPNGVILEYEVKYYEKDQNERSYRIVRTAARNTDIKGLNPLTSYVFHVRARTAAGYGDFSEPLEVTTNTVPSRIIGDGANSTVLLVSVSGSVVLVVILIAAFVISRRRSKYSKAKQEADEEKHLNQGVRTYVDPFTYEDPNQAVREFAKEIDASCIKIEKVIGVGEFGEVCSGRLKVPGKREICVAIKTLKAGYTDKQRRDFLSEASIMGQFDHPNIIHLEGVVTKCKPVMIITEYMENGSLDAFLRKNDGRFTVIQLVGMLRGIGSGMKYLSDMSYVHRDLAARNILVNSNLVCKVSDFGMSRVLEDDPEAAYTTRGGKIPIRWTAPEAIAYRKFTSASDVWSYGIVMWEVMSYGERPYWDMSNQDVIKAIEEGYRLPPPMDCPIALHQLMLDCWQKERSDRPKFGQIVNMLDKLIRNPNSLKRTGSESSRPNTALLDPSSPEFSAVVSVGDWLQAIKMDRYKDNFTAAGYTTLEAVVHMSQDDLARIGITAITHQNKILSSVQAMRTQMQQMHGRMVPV
Sequence of FAD-linked sulfhydryl oxidase ALR (P55789 whole entry): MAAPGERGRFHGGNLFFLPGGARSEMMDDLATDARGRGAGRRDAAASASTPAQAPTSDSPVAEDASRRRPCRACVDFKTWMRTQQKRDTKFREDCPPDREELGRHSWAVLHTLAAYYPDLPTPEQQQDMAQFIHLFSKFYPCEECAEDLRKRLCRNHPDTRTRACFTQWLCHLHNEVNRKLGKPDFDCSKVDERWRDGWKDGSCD

Consider `COc1cc2oc(-c3ccccc3)cc(=O)c2cc1OC`, for which the AC50 at Cytochrome P450 2C19 was 31.6 µM (inconclusive).
In the case of `Cc1ccc(C(=O)Nc2nc3ccccc3s2)s1`, the concentration for half-maximal inhibition (IC50) – broadly, the concentration that gives 50% inhibition – in experiment [1] is given as > 55.7 µM (not active).
On to `FC(F)(F)c1nnc2c(Sc3ccccn3)nc3ccccc3n12`, for which the AC50 at Paired box protein Pax-8 was 7.08 µM (active); in [2], 55.5 µM (active). At Ephrin type-A receptor 4, the concentration for half-maximal inhibition (IC50) is reported as > 100 µM (not active).
`CN1CC=C2C(C#N)=C(N)C(C#N)(C#N)C(c3cccc(Cl)c3Cl)C2C1` (stereo unspecified): the values for the IC50 (in experiment [3]; on Bcl-2-related protein A1 [4]; against Bcl-2-related protein A1 [6]) were 12 µM (inactive), > 100 µM (not active) and > 100 µM (not active), respectively. The concentration giving a half-maximal response (EC50) (usually the concentration giving half of the maximal effect) was 13.5 µM (active) in experiment [5], > 260 µM (inactive) in experiment [7] and 14.4 µM (active) in [8].
For `Cc1ccc(S(=O)(=O)Nc2cnn(-c3ccccc3)c(=O)c2Cl)cc1`, the IC50 in experiment [9] and in experiment [11] was > 39.8 µM (not active) in each case. Moreover, the EC50 is > 79.4 µM (inactive) in experiment [10], > 79.4 µM (not active) in experiment [12] and 19.2 µM (not active) in experiment [13].
Consider `CCCc1nc2ccccc2c(=O)n1/N=C/c1ccc(O)c(O)c1`, for which the AC50 in experiment [14] was 0.577 µM (active). In addition, the IC50 on Large T antigen is 10.5 µM (active); in experiment [15], 2.18 µM (active); in experiment [16] it was 38.8 µM (active); at Leucine aminopeptidase, 24.2 µM (active); against Heat shock protein HSP90, 17.5816 µM.
Regarding `NC(=O)c1cc(N2CC2)c([N+](=O)[O-])cc1[N+](=O)[O-]` [TRETAZICAR], on Cytochrome P450 3A4, the AC50 is 39.8 µM (inconclusive). Besides, the IC50 in the experiment on Danio rerio is given as 1.2 µM (not active). Also, the 50% effective concentration (EC50) in experiment [17] and in [18] was > 120 µM (not active) in each case.
